{"source": "patent US5474921A", "about": "“Expression and purification of phosphoinositide-specific phospholipase C-γ” (Merck & Co., Inc., priority 1993, dated 1995)", "molecules": {"B1": {"name": "bacterially expressed PLCγ1: rat brain PLCγ1 with C-terminal Glu-Glu-Phe epitope tag, expressed in E. coli BL21 (DE3) from plasmid pT5T-PLC4 (protein, UniProt P10686 2-1290, looked up)", "1-phosphatidylinositol …": "AGVGTPCANGCGPSAPSEAEVLHLCRSLEVGTVMTLFYSKKSQRPERKTFQVKLETRQITWSRGADKIEGSIDIREIKEIRPGKTSRDFDRYQEDPAFRPDQSHCFVILYGMEFRLKTLSLQATSEDEVNMWIKGLTWLMEDTLQAATPLQIERWLRKQFYSVDRNREDRISAKDLKNMLSQVNYRVPNMRFLRERLTDFEQRSGDITYGQFAQLYRSLMYSAQKTMDLPFLETNTLRTGERPELCQVSLSEFQQFLLEYQGELWAVDRLQVQEFMLSFLRDPLREIEEPYFFLDELVTFLFSKENSVWNSQLDAVCPETMNNPLSHYWISSSHNTYLTGDQFSSESSLEAYARCLRMGCRCIELDCWDGPDGMPVIYHGHTLTTKIKFSDVLHTIKEHAFVASEYPVILSIEDHCSIAQQRNMAQHFRKVLGDTLLTKPVDIAADGLPSPNQLKRKILIKHKKLAEGSAYEEVPTSVMYSENDISNSIKNGILYLEDPVNHEWYPHYFVLTSSKIYYSEETSSDQGNEDEEEPKEASGSTELHSSEKWFHGKLGAGRDGRHIAERLLTEYCIETGAPDGSFLVRESETFVGDYTLSFWRNGKVQHCRIHSRQDAGTPKFFLTDNLVFDSLYDLITHYQQVPLRCNEFEMRLSEPVPQTNAHESKEWYHASLTRAQAEHMLMRVPRDGAFLVRKRNEPNSYAISFRAEGKIKHCRVQQEGQTVMLGNSEFDSLVDLISYYEKHPLYRKMKLRYPINEEALEKIGTAEPDYGALYEGRNPGFYVEANPMPTFKCAVKALFDYKAQREDELTFTKSAIIQNVEKQDGGWWRGDYGGKKQLWFPSNYVEEMINPAILEPEREHLDENSPLGDLLRGVLDVPACQIAIRPEGKNNRLFVFSISMPSVAQWSLDVAADSQEELQDWVKKIREVAQTADARLTEGKMMERRKKIALELSELVVYCRPVPFDEEKIGTERACYRDMSSFPETKAEKYVNKAKGKKFLQYNRLQLSRIYPKGQRLDSSNYDPLPMWICGSQLVALNFQTPDKPMQMNQALFMAGGHCGYVLQPSTMRDEAFDPFDKSSLRGLEPCVICIEVLGARHLPKNGRGIVCPFVEIEVAGAEYDSTKQKTEFVVDNGLNPVWPAKPFHFQISNPEFAFLRFVVYEEDMFSDQNFLAQATFPVKGLKTGYRAVPLKNNYSEDLELASLLIKIDIFPAKENGDLSPFSGTSLRERASDASSQLFHVRAREGSFEARYQQPFEDFRISQEHLADHFDSRERRAPRRTRVNGDNRL", "modifications": "C-terminal Glu-Glu-Phe epitope tag"}}, "key": {"[1]": {"molecular_target": "T1, PLCγ1 (Rattus norvegicus, UniProt P10686)", "T1 construct": "made in house; host or cells: E. coli BL21 (DE3)", "T1 sequence (P10686 with tags, fused parts or gaps limits assumed)": "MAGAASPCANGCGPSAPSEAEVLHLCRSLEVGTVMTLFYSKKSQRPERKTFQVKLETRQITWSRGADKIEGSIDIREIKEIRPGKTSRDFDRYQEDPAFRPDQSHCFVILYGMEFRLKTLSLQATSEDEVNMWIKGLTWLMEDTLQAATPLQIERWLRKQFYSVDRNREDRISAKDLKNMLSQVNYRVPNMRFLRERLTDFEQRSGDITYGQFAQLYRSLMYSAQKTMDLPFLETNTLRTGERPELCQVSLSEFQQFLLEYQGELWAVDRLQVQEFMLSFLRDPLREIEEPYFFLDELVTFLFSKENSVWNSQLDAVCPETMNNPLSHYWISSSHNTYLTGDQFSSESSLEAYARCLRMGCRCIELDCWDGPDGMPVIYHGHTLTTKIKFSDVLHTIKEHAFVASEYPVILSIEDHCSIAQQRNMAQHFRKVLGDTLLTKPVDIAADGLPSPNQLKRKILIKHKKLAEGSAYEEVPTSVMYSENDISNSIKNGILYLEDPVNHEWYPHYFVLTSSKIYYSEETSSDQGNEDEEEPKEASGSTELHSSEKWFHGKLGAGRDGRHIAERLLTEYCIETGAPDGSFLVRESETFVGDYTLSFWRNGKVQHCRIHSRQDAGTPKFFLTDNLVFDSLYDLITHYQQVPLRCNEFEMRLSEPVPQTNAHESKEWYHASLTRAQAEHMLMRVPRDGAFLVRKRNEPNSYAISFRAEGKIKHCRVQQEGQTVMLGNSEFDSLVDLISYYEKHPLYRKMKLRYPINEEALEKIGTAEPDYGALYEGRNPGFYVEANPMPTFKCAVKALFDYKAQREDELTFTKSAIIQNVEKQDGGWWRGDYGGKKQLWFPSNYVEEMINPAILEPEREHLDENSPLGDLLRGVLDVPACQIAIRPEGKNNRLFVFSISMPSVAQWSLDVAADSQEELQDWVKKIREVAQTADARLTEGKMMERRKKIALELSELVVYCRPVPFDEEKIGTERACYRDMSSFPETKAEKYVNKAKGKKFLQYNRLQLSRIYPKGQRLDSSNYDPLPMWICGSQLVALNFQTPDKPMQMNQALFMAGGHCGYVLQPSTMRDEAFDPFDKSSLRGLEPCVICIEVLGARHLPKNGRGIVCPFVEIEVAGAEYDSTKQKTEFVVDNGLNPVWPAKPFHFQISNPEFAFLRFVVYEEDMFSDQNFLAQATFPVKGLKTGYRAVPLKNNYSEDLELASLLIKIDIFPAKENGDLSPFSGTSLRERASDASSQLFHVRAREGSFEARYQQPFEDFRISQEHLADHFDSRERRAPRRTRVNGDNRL", "assay": "Assay of inhibitory activity of compounds against PLCγ1 (hydrolysis of [3H]-phosphatidyl inositol by purified bacterially expressed PLCγ1)", "assay_type": "biochemical", "details": "30° C., pH 7.5, 0.1% deoxycholate, compound included prior to addition of enzyme", "source_text": "Subcloning of the PLCγ1 Coding Sequence. Rat brain cDNA is synthesized using rat brain poly(A)RNA as template by literature protocol (Sambrook, J. et al., Molecular Cloning: A Laboratory Manual, Cold Spring Harbor Laboratory Press, Cold Spring Harbor, N.Y.). From the published cDNA sequence of rat brain PLCγ1 (Suh, P. -G., Ryu, S. H., Moon, K. H., Suh, H. W., & Rhee, S. G. (1988) Proc. Natl. Acad. Sci. USA 85, 5419-5423), PCR primers, one which contains a BamHI restriction site upstream of the sequence complementary to the 5' end of the PLCγ gene (primer 01 ), and the other one which contains a HindIII site downstream of the 3' end of the PLCγ gene (primer 04), were synthesized. Carrying out the PCR using these primers (01 and 04) with the above mentioned rat brain eDNA as template, a DNA fragment with the entire rat brain PLCγ1 coding sequence, flanked by a 5' BamHI site and a 3' HindIII site, is generated. This BarnHI-HindIII fragment containing the coding sequence of PLCγ1 was subcloned into pBSII(S/K)+, generating pPLCl. The rest of the manipulations were accomplished using PCR to generate the appropriate DNA fragment. The 5' end of the PLCγ1 gene was altered to include a new BarnHi site and a sequence that would eventually translationally couple the expression of PLCγ to the .phi.10 gene of the pT5T vector as described by Eisenberg, S. P., Evans, R. J., Arend, W. P., Verderber, E., Brewer, M. T., Hannum, C. H., & Thompson, R. C. (1990) Nature(London) 343,341-346.\nUsing the isolated mutant fragments from each of these PCRs together as template, the final PCR was carried out using primers 03-06 which yielded, after restriction enzyme digestion, a SphI and HindIll fragment which was used to replace the analogous fragment in pPLC2. The resulting plasmid, pPLC3, contained the coding sequence of the PLCγ1 gene on a BarnHI-HindlII fragment with both the sequence encoding the Glu-Glu-Phe tag at the 3' end as well as the changed AGG codons. […] (SEQ.ID.NO.: 3) Finally, the BarnHI-HindIII fragment from pPLC3 was transferred into the BamHI-HindIII site of pTST, generating pTST-PLC4. This construct was used to produce PLCγ1 (containing the Glu-Glu-Phe epitope tag at the C-terminus) translationally coupled to the expression of .phi.10 protein in the pT5T vector.\nExpression and Purification of PLCγ1. To express PLCγ1 the plasmid pT5T-PLC4 was transformed into E. coli BL21 (DE3). The transformed cells were grown in LB media containing ampicillin (100 μg/ml) and tetracycline (12.5 μg/ml) at 20° C. until the optical density of the cultures at 550 nm was equal to 0.8. This transformed bacterial cell has been deposited with the ATCC and has been assigned the number ATCC 69421. Expression of PLCγ1 was then induced by addition of isopropyl β-D-thiogalactopyranoside (0.5 mM final concentration) to the cultures. After growing for another 6 hours the cells were harvested and PLCγ1 was purified as described below. PLCγ1 was isolated from E. coli by resuspending a cell pellet in standard buffer, 50 mM Tris-C1 pH 8.0, 2 mM MgCl2, 10 mM CaCl2, 1 mM EGTA, 5 mM DTT, 5 mM streptomycin sulfate, 1 mM PMSF, 2 μg/ml leupeptin, 2 μg/ml antipain, 10 μg/ml aprotinin (approximately 5 g wet packed cells/10 ml buffer). The resuspended cells were broken by sonication and the cell debris pelleted by centrifugation at 30,000×g at 4° C. for 30 minutes. The soluble fraction was applied at a flow rate of approximately 0.5 ml/min. to a 2 ml column of the monoclonal antibody YL 1/2(4 mg antibody/ml resin) coupled to cyanogen bromide activated Sepharose. The YL1/2 Sepharose column, which binds the epitope tag Glu-Glu-Phe had previously been equilibrated with standard buffer. After loading the protein onto the column, the column was washed with standard buffer (100 mls) PLCγ1 was eluted with 3×5ml 5 mM Asp-Phe dipeptide (Sigma) in standard buffer. The column was regenerated by washing with phosphate buffered saline (PBS)+2 M NaCl and then stored in PBS +0.02% NaN3 (wt./vol). […]"}, "[2]": {"test_system": "phospholipase C", "details": "background statement; cited from earlier work"}, "[3]": {"test_system": "platelets", "details": "background statement; cited from earlier work"}, "[4]": {"test_system": "macrophages", "details": "background statement; cited from earlier work"}, "[5]": {"assay": "Assay of purified PLCγ1 activity (hydrolysis of [3H]-phosphatidyl inositol)", "assay_type": "biochemical", "details": "30° C., 50 mM HEPES pH 7.5; bacterially expressed vs naturally derived enzyme in the same assay", "source_text": "Reactions were never allowed to proceed to more than 10% completion based on the limiting substrate."}}}
{"molecule": "O=P(O)(O)C(O)c1cccc(Oc2ccccc2Cl)c1", "note": "(stereo not drawn) [drawing 1: R3=Cl, R4=H, R5=H]", "values": [{"measurement": "IC50", "setting": "[1]; Table 1", "result": 17, "unit": "µM"}]}
{"molecule": "O=P(O)(O)C(O)c1cccc(Oc2ccc(Cl)c(Cl)c2)c1", "note": "(stereo not drawn) [drawing 1: R3=H, R4=Cl, R5=Cl]", "values": [{"measurement": "IC50", "setting": "[1]; Table 1", "result": 56, "unit": "µM"}]}
{"molecule": "O=P(O)(O)C(O)c1cccc(Oc2cccc(Cl)c2)c1", "note": "(stereo not drawn) [drawing 1: R3=H, R4=Cl, R5=H]", "values": [{"measurement": "IC50", "setting": "[1]; Table 1", "result": 10, "unit": "µM"}]}
{"molecule": "Cc1ccc(Oc2cccc(C(O)P(=O)(O)O)c2)cc1", "note": "(stereo not drawn) [drawing 1: R3=H, R4=H, R5=CH3]", "values": [{"measurement": "IC50", "setting": "[1]; Table 1", "result": 13, "unit": "µM"}]}
{"molecule": "O=P(O)(O)C(O)c1cccc(Oc2ccc(Cl)cc2)c1", "note": "(stereo not drawn) [drawing 1: R3=H, R4=H, R5=Cl]", "values": [{"measurement": "IC50", "setting": "[1]; Table 1", "result": 36, "unit": "µM"}]}
{"molecule": "O=P(O)(O)C(O)c1cccc(Oc2ccccc2)c1", "note": "(stereo not drawn) [drawing 1: R3=H, R4=H, R5=H]", "values": [{"measurement": "IC50", "setting": "[1]; Table 1", "result": 190, "unit": "µM"}]}
{"molecule": "COc1ccc(Oc2cccc(C(O)P(=O)(O)O)c2)cc1", "note": "(stereo not drawn) [drawing 1: R3=H, R4=H, R5=OCH3]", "values": [{"measurement": "IC50", "setting": "[1]; Table 1", "result": 7, "unit": "µM"}]}
{"molecule": "O=P(O)(O)C(O)c1cccc(Oc2ccc(O)cc2)c1", "note": "(stereo not drawn) [drawing 1: R3=H, R4=H, R5=OH]", "values": [{"measurement": "IC50", "setting": "[1]; Table 1", "result": 3, "unit": "µM"}]}
{"molecule": "CCc1cccc(Oc2ccc(C(O)P(=O)(O)O)cc2)c1", "note": "(stereo not drawn) [drawing 2: R3=H, R4=CH2CH3, R5=H]", "values": [{"measurement": "IC50", "setting": "[1]; Table 2", "result": 37, "unit": "µM"}]}
{"molecule": "O=P(O)(O)C(O)c1ccc(Oc2cccc(Cl)c2)cc1", "note": "(stereo not drawn) [drawing 2: R3=H, R4=Cl, R5=H]", "values": [{"measurement": "IC50", "setting": "[1]; Table 2", "result": 5, "unit": "µM"}]}
{"molecule": "COc1cccc(Oc2ccc(C(O)P(=O)(O)O)cc2)c1", "note": "(stereo not drawn) [drawing 2: R3=H, R4=OCH3, R5=H]", "values": [{"measurement": "IC50", "setting": "[1]; Table 2", "result": 8, "unit": "µM"}]}
{"molecule": "c1ccc2c(c1)Nc1ccccc1S2", "note": "[phenothiazine]", "values": [{"measurement": "inhibition of phospholipase C", "setting": "[2]", "result": "inhibited"}, {"measurement": "inhibition of stimulated release of prostaglandins from platelets", "setting": "[3]", "result": "inhibit"}, {"measurement": "inhibition of stimulated release of arachidonic acid from macrophages", "setting": "[4]", "result": "inhibit"}]}
{"molecule": "B1", "values": [{"measurement": "specific activity", "setting": "[5]", "result": 13.8, "unit": "µmol/min/mg"}]}
